Source: PubChem BioAssay AID1417 (Emory University Molecular Libraries Screening Center, 2008)

target: Induced myeloid leukemia cell differentiation protein Mcl-1 (Homo sapiens) (UniProt Q07820); assay: Mcl-1 Noxa peptide disruption concentration-response – biochemical, TR-FRET, dose response (AID 1417); conditions: Mcl-1/Noxa peptide interaction, cell-free TR-FRET (terbium/rhodamine), 2 h; measured here: absolute IC50
Sequence (Q07820 whole entry, looked up): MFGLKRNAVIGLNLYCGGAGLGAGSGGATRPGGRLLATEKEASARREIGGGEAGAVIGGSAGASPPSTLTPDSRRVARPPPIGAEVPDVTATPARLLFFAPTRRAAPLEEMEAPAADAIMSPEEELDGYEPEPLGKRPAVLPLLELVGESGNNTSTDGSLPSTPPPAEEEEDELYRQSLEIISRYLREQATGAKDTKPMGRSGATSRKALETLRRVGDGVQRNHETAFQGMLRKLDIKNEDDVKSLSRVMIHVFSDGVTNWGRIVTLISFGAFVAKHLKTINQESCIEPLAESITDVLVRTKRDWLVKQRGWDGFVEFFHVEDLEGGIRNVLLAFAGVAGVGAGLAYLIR

SMILES	IC50
COc1ccc(CC(=O)n2[nH]c(=O)ccc2=O)cc1OC	< 0.4 µM
O=C(O)c1ccc(Nc2nc(-c3cc4ccccc4oc3=O)cs2)cc1O	5.36 µM
CCn1c(C)cc(/C=C2\NC(=O)N(Cc3ccc(Cl)cc3)C2=O)c1C	7.52 µM
O=[N+]([O-])c1cccc(S(=O)(=O)Nc2nc3ccccc3nc2Nc2cccc(S(=O)(=O)N3CCCCC3)c2)c1	3.75 µM
O=C(O)c1cccc(N/N=C/C2=C(Cl)c3cc(Cl)ccc3SC2)c1	4.33 µM
CCN(c1ccc(NC(=O)COC(=O)c2cc3ccccc3oc2=O)cc1)C(C)C	> 54 µM
Oc1ccc(Br)cc1-c1cc(-c2ccc(Cl)cc2)n[nH]1	1.68 µM
CC1=C(C#N)C(=O)NC(=O)/C1=C\c1ccc(-c2ccc(C)cc2[N+](=O)[O-])o1	< 0.4 µM
N=C1/C(=C\c2ccc(-c3cccc(C(=O)O)c3)o2)C(=O)N=C2SC=C(c3ccccc3)N12	1.3 µM
CCOc1cc(/C=C2\C(=O)N(c3nc(-c4ccc(Br)cc4)cs3)N=C2c2ccccc2)ccc1O	1.65 µM
O=C(Cc1cccs1)N/N=C/C=C\c1ccco1	> 54 µM
CN(C)c1ccc(/C=c2\sc3nc(-c4ccccc4)nn3c2=O)cc1	8.8 µM
Nc1ccc2c(c1Cl)C(=O)c1ccc(N)c(Cl)c1C2=O	< 0.4 µM
Oc1ccc(/C=N/n2cc(-c3ccccc3)[nH]c2=S)cc1	< 0.4 µM
Cn1c(SCC(=O)Nc2ccc3nc(SCC(=O)N4CCCC4)sc3c2)nnc1-c1ccccc1	2.24 µM
COc1ccc(Cl)c(N2CCN(CCCNC(=O)Nc3ccc(C)cc3)CC2)c1	6.02 µM
C=C(C)C(=O)Nc1cccc(C2=NOC3(C2)C[C@@H](C(N)=O)N(C(=O)/C=C/C=C/C)C3)c1 (stereo partly specified)	< 0.4 µM
O=C(Nc1cccc(Cl)c1)c1cc(N=Nc2ccc([N+](=O)[O-])cc2Cl)ccc1O	1.56 µM
COc1cc2c(-c3ccc(O)cc3)nc3c(c(C)nn3-c3ccccc3)c2cc1OC	1.19 µM
Cc1ccc2nc(/C(C#N)=C/c3ccc(-c4cccc([N+](=O)[O-])c4)o3)[nH]c2c1	1.68 µM
COc1cc(/C=C2\SC(=O)N(c3ccc(Cl)cc3)C2=O)cc([N+](=O)[O-])c1O	< 0.4 µM

SMILES	IC50
Oc1ccc(/C=N/Nc2nc(-c3cccnc3)nc3ccccc23)c(O)c1	> 54 µM
COc1cc(/C=N/Nc2nnc3c(n2)[nH]c2ccccc23)ccc1O	5.83 µM
COc1ccc(-n2nc3cc(C)c(N)c(Br)c3n2)cc1	2.86 µM
COCCN(CCOC)S(=O)(=O)c1ccc(C(=O)Nc2c(C)n(C)n(-c3ccccc3)c2=O)cc1	> 54 µM
c1ccc(-c2ccc(-c3n(-c4ccccn4)c4ccccc4[n+]3-c3ccccn3)cc2)cc1	34.6 µM
COc1ccc(CN2C(=O)NC(=O)/C(=C/c3ccc([N+](=O)[O-])o3)C2=O)cc1	2.81 µM
N#Cc1c(NC(=O)CSc2ncnc3sccc23)oc(-c2ccco2)c1-c1ccco1	3.2 µM
COc1cc(/C=C2\SC(=O)N(Cc3ccc(F)cc3)C2=O)cc([N+](=O)[O-])c1O	7.01 µM
O=C(CNC(=O)C(c1ccccc1)c1ccccc1)N/N=C/c1cccnc1	> 54 µM
CCOC(=O)CC1=CSC2=NS(=O)(=O)CCN12	> 54 µM
CCOC(=O)c1c(OCC)[nH]c2c1cc(O)c1ccccc12	< 0.4 µM
COc1ccc(NC(=S)NNc2ccc(S(=O)(=O)Nc3ccccc3C(=O)O)cc2[N+](=O)[O-])cc1	> 54 µM
COc1ccc(O)c(N)c1	< 0.4 µM
C=C(C)C(=O)Nc1cccc(C2=NOC3(C2)C[C@@H](C(N)=O)N(C(=O)c2cc([N+](=O)[O-])cc([N+](=O)[O-])c2C)C3)c1 (stereo partly specified)	4.09 µM
Cc1ccc(-c2nn(-c3ccccc3)cc2/C=C2\SC(=S)N(CC(=O)O)C2=O)cc1	4.63 µM
CCOC(=O)C1=C(O)c2ccccc2C(=O)/C1=C\c1ccc(CC)cc1	< 0.4 µM
CCOc1c(Cl)cc(CNc2ccc(N3CCCC3)cc2)cc1OC	1.58 µM
COc1ccc(C(c2c(O)ccc3ccccc23)N2CCOCC2)c(OC)c1 (stereo unspecified)	< 0.4 µM
CCN(CC)c1ccc(NC(=O)c2ccc3c(c2)c(C)c(C)n3C)cc1	> 54 µM
COc1cc(/C=C2/C(=O)c3cccc([N+](=O)[O-])c3C2=O)c(Br)cc1O	< 0.4 µM
